Like-named read-outs stand apart in the source and are kept apart here.
What was measured:
LynA tyrosine kinase = LynA tyrosine kinase (Homo sapiens, UniProt P07948); experiment: Effect on LynA tyrosine kinase activity; format: biochemical
[1] = Bioavailability and pharmacokinetics of polymorphs 1 and 2 after single oral dose, cross-over, in dogs; format: in vivo, male Beagle dog; conditions: for LS geometric mean Cmax: corrected to a 60.0-mg dose; for adverse reactions to the oral administration: single oral dose 60 mg/kg
Experimental: This study was designed to obtain blood plasma samples to enable the comparison of the bioavailability and pharmacokinetics of two different polymorphs 1 and 2 following single-dose oral administration to six dogs. A cross-over design was used with three dogs treated according to sequence 1 (polymorph 2 after 1) and three dogs according to sequence 2 (polymorph 1 after 2) with a one-week washout period between treatments.
Each polymorph was prepared as a suspension in a vehicle of 0.5% w/v HPMC K15M/0.5% w/v Tween 80 in sterile water.
Six male Beagle dogs (Tattoo numbers: 4986, 0964, 3611, 2380, 5002 and 1122 on-study animal numbers: 001 M, 002M, 003M, 004M, 005M and 006M, respectively) bodyweight 9.5-11.5 kg, aged 2-7 years at dosing, currently held as part of a colony of animals (Colony number: 190431) were used on this study. Dogs were originally obtained from Marshall Farms USA Inc. (NY, USA) or Envigo RMS, and were bred for use in scientific procedures. During pre-trial and on-study periods, the animals were group-housed in caging appropriate to the species. Prior to acceptance for use on study, animals were subject to a veterinary examination and the results found to be satisfactory. Holding and study areas had automatic control of light cycles and temperature. Light hours were 0700-1900 h. Ranges of temperature and humidity measured during the study were 17.0-21.8° C. and 23.4-83.07%, respectively. All animals were weighed prior to each dose administration and the bodyweights recorded. With the exception of a period of fasting from overnight predose until 4 hours post dose, a daily allowance of 200-300 g of standard laboratory diet of known formulation (SDS D3 (E) SQC) was available. Mains quality tap water was available ad libitum.
The formulation was always prepared on the morning of dose administration. Each polymorph was prepared as a suspension at a concentration of 12 mg/mL in a vehicle of 0.5% w/v HPMC K15M/0.5% w/v Tween 80 in sterile water for injection. The required volume of vehicle was added to an appropriate formulation container.
Each group of 3 male dogs, received a single oral dose administration of a polymorph at a target dose level of 60 mg/kg. Following a wash out period of 1 week each group of 3 male dogs received the alternative polymorph.
For each group, whole blood samples (ca 1.0 mL) were collected from the jugular veins in to NaF/EDTA tubes at the following time points:
Times given above were target times which were adhered to as closely as possible. Actual times of sample collection (and of dosing) were recorded (Table 2) and used in the evaluation of pharmacokinetic parameters. Immediately following collection, blood samples were placed on wet ice. As soon as practically possible the blood samples were centrifuged (+4° C., 1500 g, 10 min). The resulting plasma was divided into two aliquots (vial A: 100 μl plasma, vial B: remaining volume) and stored in appropriately labelled polypropylene tubes in a freezer set to maintain a temperature of −80° C. until shipment. All plasma samples, remaining dose formulation and dose aliquots were stored in a freezer set to maintain a temperature of −80° C. until shipment.
Pharmacokinetic (PK) parameters were estimated using Phoenix pharmacokinetic software using a non-compartmental approach consistent with the oral route of administration. All parameters were generated from polymorph 1 and 2 individual concentrations in plasma. Parameters were estimated using nominal sampling times relative to the start of each dose administration within an allowable deviation range (±10%). Predose samples below the limit of quantification (0.5 ng/mL) were assumed to be 0 for the PK analysis.
The area under the polymorph 1 and 2 plasma concentration versus time curve (AUC) was calculated using the linear trapezoidal method with linear interpolation. […]

BLK tyrosine kinase = BLK tyrosine kinase (Homo sapiens, UniProt P51451); experiment: Effect on BLK tyrosine kinase activity; format: biochemical
Sequence of BLK tyrosine kinase (P51451 whole entry): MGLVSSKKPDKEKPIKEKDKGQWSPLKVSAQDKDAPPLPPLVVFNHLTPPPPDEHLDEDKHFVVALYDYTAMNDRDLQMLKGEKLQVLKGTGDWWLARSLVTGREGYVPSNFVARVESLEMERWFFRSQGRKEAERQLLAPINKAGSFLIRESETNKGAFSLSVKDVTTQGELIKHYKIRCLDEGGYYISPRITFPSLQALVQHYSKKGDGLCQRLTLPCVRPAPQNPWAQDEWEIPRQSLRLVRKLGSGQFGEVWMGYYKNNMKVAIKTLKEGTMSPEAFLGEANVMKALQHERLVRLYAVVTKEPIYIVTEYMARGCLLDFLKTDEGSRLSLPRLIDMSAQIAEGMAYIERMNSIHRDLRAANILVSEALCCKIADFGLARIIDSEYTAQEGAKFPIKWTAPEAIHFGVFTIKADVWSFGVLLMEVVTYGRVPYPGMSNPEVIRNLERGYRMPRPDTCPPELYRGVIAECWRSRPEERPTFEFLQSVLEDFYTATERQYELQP

LynB tyrosine kinase = LynB tyrosine kinase (Homo sapiens, UniProt P07948); experiment: Effect on LynB tyrosine kinase activity; format: biochemical
Sequence of LynB tyrosine kinase (P07948 1-491 isoform P07948-2): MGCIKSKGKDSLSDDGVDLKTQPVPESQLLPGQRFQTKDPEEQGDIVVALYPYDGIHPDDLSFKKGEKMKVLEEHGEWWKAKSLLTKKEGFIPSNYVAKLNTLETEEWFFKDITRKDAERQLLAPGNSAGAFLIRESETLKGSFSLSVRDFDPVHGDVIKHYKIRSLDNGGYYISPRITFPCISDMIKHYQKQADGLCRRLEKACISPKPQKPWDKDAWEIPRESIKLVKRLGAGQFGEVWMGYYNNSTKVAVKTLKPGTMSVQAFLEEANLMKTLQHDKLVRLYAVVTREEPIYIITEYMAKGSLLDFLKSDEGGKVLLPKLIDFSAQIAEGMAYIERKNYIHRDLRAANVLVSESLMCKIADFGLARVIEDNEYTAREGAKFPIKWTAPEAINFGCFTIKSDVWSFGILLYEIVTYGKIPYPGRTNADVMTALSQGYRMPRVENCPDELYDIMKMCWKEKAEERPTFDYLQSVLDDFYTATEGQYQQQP

[2] = Gravimetric Vapour Sorption (GVS); format: physicochemical; conditions: for change of polymorphic form on GVS cycling: hysteresis between cycles / XRPD after the cycles; for weight gain to 80% RH (GVS): first adsorption cycle
Experimental: Gravimetric Vapour Sorption (GVS)
Approximately 10 mg of sample was placed into a wire-mesh vapour sorption balance pan and loaded into an ‘IgaSorp’ vapour sorption balance (Hiden Analytical Instruments). The sample was then dried by maintaining a 0% humidity environment until no further weight change was recorded. Subsequently, the sample was subjected to a ramping profile from 0-90% RH at 10% RH increments, maintaining the sample at each step until equilibration had been attained (99% step completion). Upon reaching equilibration, the % RH within the apparatus was ramped to the next step and the equilibration procedure repeated. After completion of the sorption cycle, the sample was then dried using the same procedure. The weight change during the sorption/desorption cycles were then monitored, allowing for the hygroscopic nature of the sample to be determined.

[3] = male Beagle dog plasma, oral suspension, target 60 mg/kg

Sequence of LynA tyrosine kinase (P07948 whole entry): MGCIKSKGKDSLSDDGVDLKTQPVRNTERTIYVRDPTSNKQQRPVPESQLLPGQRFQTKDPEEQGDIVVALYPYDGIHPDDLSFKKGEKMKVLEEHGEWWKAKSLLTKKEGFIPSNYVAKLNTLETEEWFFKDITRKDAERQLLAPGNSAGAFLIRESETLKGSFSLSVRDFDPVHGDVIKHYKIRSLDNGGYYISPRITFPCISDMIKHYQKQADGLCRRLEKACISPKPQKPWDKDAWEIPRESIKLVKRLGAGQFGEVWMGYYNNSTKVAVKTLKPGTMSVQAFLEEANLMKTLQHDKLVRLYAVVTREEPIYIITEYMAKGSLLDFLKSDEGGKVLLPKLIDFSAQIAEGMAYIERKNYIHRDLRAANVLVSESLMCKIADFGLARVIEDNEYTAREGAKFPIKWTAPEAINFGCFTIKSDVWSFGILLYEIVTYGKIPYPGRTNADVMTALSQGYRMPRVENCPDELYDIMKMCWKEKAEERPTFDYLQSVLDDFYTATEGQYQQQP

C[C@H](O)COC[C@H](Cc1ccc(O)cc1)NC(=O)CCc1ccccc1 [NRD135S.E1, (S,S)-2-N(3-O-(propan-2-ol)-1-propyl-4-hydroxybenzene)-3-phenylpropylamide]
effect on activity of LynA tyrosine kinase (LynA tyrosine kinase): capable of activating | extrapolated part of AUC(0-∞) ([1]; male Beagle dog, oral 60 mg/kg): no more than 6% | half-life ([1]; plasma, male Beagle dog, oral 60 mg/kg, terminal decline, read-out: estimated mean half-life): 3 to 4 h | effect on activity of BLK tyrosine kinase (BLK tyrosine kinase): capable of activating | effect on activity of LynB tyrosine kinase (LynB tyrosine kinase): no or substantially no effect

C[C@H](O)COC[C@H](Cc1ccc(O)cc1)NC(=O)CCc1ccccc1 [polymorph 1, (S,S)-2-N(3-O-(propan-2-ol)-1-propyl-4-hydroxybenzene)-3-phenylpropylamide]
hygroscopicity (GVS, in words) [2]: hygroscopic | change of polymorphic form on GVS cycling [2]: hinted towards form change | weight increase in second adsorption cycle (GVS) ([2]; second adsorption cycle, RH of 40%): > 2% | weight increase to 70% RH (GVS) ([2]; to 70% RH): ~1.3% | weight gain to 80% RH (GVS) [2]: 5.6% | LS geometric mean Cmax [1, 3]: 4986 ng/mL | adverse reactions to the oral administration ([1]; male Beagle dog): No adverse reactions | AUC(0-inf) ([1]; male, Beagle, dog, plasma, po, 60 mg/kg, male Beagle dog plasma, oral suspension, target 60 mg/kg, corrected to a 60.0 mg dose, read-out: LS geometric mean AUC(0-∞)): 13200 ng·h/mL

C[C@H](O)COC[C@H](Cc1ccc(O)cc1)NC(=O)CCc1ccccc1 [polymorph 2, (S,S)-2-N(3-O-(propan-2-ol)-1-propyl-4-hydroxybenzene)-3-phenylpropylamide]
hygroscopicity (GVS, in words) [2]: only slightly hygroscopic | overall weight loss by the end of the two adsorption/desorption cycles (GVS) ([2]; after two adsorption/desorption cycles): ~1% | change of polymorphic form on GVS cycling ([2]; listed as Form 2): no change of polymorphic form | hygroscopicity (GVS, in words) ([2]; listed as Form 2): only slightly hygroscopic | weight gain to 80% RH (GVS) [2]: 0.6% | weight gain to 80% RH (GVS) ([2]; listed as Form 2): 0.6% | bioavailability (in words) ([1]; dog bioavailability tests): exceptionally high | LS geometric mean AUC(0-∞) ([1]; male Beagle dog plasma, oral suspension, target 60 mg/kg, corrected to a 60.0 mg dose): 20064 ng·h/mL | LS geometric mean Cmax [1, 3]: 11088 ng/mL | geometric mean ratio (polymorph 2/polymorph 1) of AUC(0-∞) ([1]; male Beagle dog, oral, dose-corrected, 90% CI 1.35, 1.71): 1.52 | geometric mean ratio (polymorph 2/polymorph 1) of Cmax ([1]; male Beagle dog, oral, dose-corrected, 90% CI 1.84, 2.70): 2.22 | adverse reactions to the oral administration ([1]; male Beagle dog): No adverse reactions
